In patent US20130210156A1, “Uniform, Functionalized, Cross-Linked Nanostructures for Monitoring pH” (priority 2010, published 2013):

Experiments:
[1] = pH-responsive UV-Vis and fluorescence emission of MCNs, SCKs and small molecule cross-linkers; type: physicochemical; settings: small molecules in buffer at the surveyed pH values (5.8 to 8.6)
Method: The UV-vis absorption spectra of MCNs were collected at room temperature using a Varian Cary 100 Bio UV-visible spectrophotometer and plastic cuvettes with 10 mm of light path. For each MCN absorption spectroscopy measurement, the corresponding buffer solution (5 mM with 5 mM of NaCl) outside the dialysis tubing was used as control.
The fluorescence spectra of MCNs were obtained at room temperature using a Varian Cary Eclipse fluorescence spectrophotometer. All fluorescence spectra from MCN solutions were measured at optical densities at the excitation wavelength. If not specially mentioned otherwise, an excitation wavelength of the observed maximum absorption peak was used. Each fluorescence spectrum was normalized with respect to the absorbed light intensity at the excitation wavelength.
To a solution of PEO45-b-PNAS105-b-PS45 MCMs (30.0 mg of block copolymer precursor, 127 μmol of NAS residues) in 60.0 mL of DMF/H2O (v:v=1:1) at room temperature, was added dropwise over 10 min, a solution of cross-linker 2 or 3 of FIG. 24 (12.7 μmol for nominal 20% of cross-linking and 31.8 μmol for nominal 50% of cross-linking, respectively) in nano-pure H2O. The reaction mixture was allowed to stir for 48 h at room temperature in the absence of light. […]

[2] = Fluorescence emission of photonic SCKs and cross-linkers as a function of solution pH; type: physicochemical
Method: The resulting micelle solution 2 was incubated with 6.25 mol % or 12.5 mol % of the diamino-terminated pyrazine, relative to the acrylic acid residues, with the addition of EDCI, to afford SCK 3 or 4 having different amounts of fluorophores incorporated into the shells and, therefore, different degrees of cross-linking. The reaction mixture solutions were dialyzed against nanopure water for […] to remove the urea by-products and any non-attached pyrazine fluorophores. The SCK dimensions were then measured by atomic force microscopy (AFM) and transmission electron microscopy (TEM). […] Dialysis of the SCK solutions against nanopure water (ca. pH 7) for 3 days and then partitioning into six vials, each containing 5 mL of 5 mM PBS at pH 4.5, 6.1, 8.0, 9.5, or 11.0, placed the SCKs into different pH environments for analysis of the effects on the SCK hydrodynamic diameters and on the fluorophore photophysical properties.
Covalent cross-linking between the pyrazine units and the PAA shells, thereby, affords photonic SCKs for potential pH sensing. Covalent cross-linking between pyrazine and PAA shells constitutes photonic SCKs for potential biomedical applications. We expected to observe the photophysical consequences of the deprotonated PAA shell from pH 4.5 to 9.5 and those of the PpHS core from pH 9.5 to 11. In order to test our hypothesis, UV-vis and fluorescence measurements were collected on the resulting SCK solutions over the pH range of 4.5 to 11.0 to determine the pyrazine concentration, and then normalize the concentration relative to the fluorescence intensity values (See, FIG. 8). […] To observe the photophysical properties of the photonic SCKs, the data for the pyrazines within the SCK shell layers were compared between the two SCKs having different degrees of pyrazine loading and also against the pyrazine cross-linker associated physically with PAA and as a small molecule in buffered solutions.
To a 50 mL RB flask equipped with a magnetic stir bar was added a solution of micelles in nanopure H2O (15.0 mL, 0.016 mmol of carboxylic acid residues). To this solution, was added a solution of 3,6-diamino-N^2,N^5-bis(2-aminoethyl)pyrazine-2,5-dicarboxamide (0.397 mg, 1.12 μmol (6.25 mol % relative to the acrylic acid residues) for 12.5% cross-linking extent; or 0.794 mg, 2.24 μmol (12.5 mol % relative to the acrylic acid residues) for 25% cross-linking extent) in 1 mL nanopure H2O. The reaction mixture was allowed to stir for 2 h at room temperature. To this solution was added, dropwise via a syringe pump over 1 h, a solution of 1-[3′-(dimethylamino)propyl]-3-ethylcarbodiimide methiodide (EDCI, 0.849 mg, 2.86 μmol for 12.5% cross-linking extent; or 1.70 mg, 5.72 μmol for 25% cross-linking extent) in nanopure H2O (1.0 mL) and the reaction mixture was further stirred for 16 h at room temperature. Finally, the reaction mixture was transferred to pre-soaked dialysis tubing (MWCO ca. 3,500 Da) and dialyzed against nanopure water for 3 d to remove the small molecule starting materials and by-products, and afford aqueous solutions of SCK 3 and 4. SCK solutions for DLS, UV-vis, and fluorescence studies were further partitioned into six vials each containing 5 mM PBS (with 5 mM NaCl) at pH values of 4.5, 6.1, 8.0, 9.5, and 11.
Preparation of shell cross-linked nanoparticles (SCK) from micelles: Micelle solution pH was adjusted between 5 and 6. An electronic pipette was used to add 6.25 mol % or 12.5 mol % of diamine-terminated cross-linker (from stock solution with concentration 2.392 mg/mL or 6.2957 mg/mL) to the micelle solution and let stir for 3 hrs. To this reaction mixture was added dropwise, via a metering pump, a solution of 1-[3-(dimethylamino)propyl]-3-ethylcarbodiimide methiodide dissolved in nanopure water (12.5 mol % or 25.0 mol %). […]

[3] = excited between 488 nm and 530 nm; cited from earlier work

Cl.Cl.NCCCOCCOCCOCCCNC(=O)c1nc(N)c(C(=O)NCCCOCCOCCOCCCN)nc1N [cross-linker 3]
UV-Vis absorbance and fluorescence emission spectra variation [1]: no apparent UV-Vis absorbance and fluorescence emission spectra variation

Cl.Cl.NCCCOCCOCCOCCCNC(=O)c1nc(N)c(C(=O)NCCCOCCOCCOCCCN)nc1N [Photonic Cross-Linker Example 3, 3,6-diamino-N^2,N^5-bis(3-(2-(2-(3-aminopropoxy)ethoxy)ethoxy)propyl)pyrazine-2,5-dicarboxamide dihydrochloride]
decrease in fluorescence ([2]; as a function of increasing pH): ca. 30%

carboxyseminaphthofluorescein [cSNARF®-1]
I580/I640 ratio [3]: greater than thirty

Cl.Cl.NCCNC(=O)c1nc(N)c(C(=O)NCCN)nc1N [Photonic Cross-Linker Example 2, 3,6-diamino-N^2,N^5-bis(2-aminoethyl)pyrazine-2,5-dicarboxamide dihydrochloride]
change in fluorescence ([2]; as a function of increasing pH): less than 10%
Normalized percent increase in fluorescence ([2]; solution pH 4.5): 100%
Normalized percent increase in fluorescence ([2]; solution pH 6.1): 100%
Normalized percent increase in fluorescence ([2]; solution pH 8.0): 100%
Normalized percent increase in fluorescence ([2]; solution pH 9.5): 110%
Normalized percent increase in fluorescence ([2]; solution pH 11.0): 100%

Cl.Cl.NCCNC(=O)c1nc(N)c(C(=O)NCCN)nc1N [cross-linker 2]
UV-Vis absorbance and fluorescence emission spectra variation [1]: no apparent UV-Vis absorbance and fluorescence emission spectra variation
